Experimental data as given in a flash point compilation (Sun et al. 2020).
Structures can show the parent of a compound that is named as a salt.

In the case of c1ccc2c(c1)ccc1ncccc12 [benzo[f]quinoline], the flash point is reported as 166.00 °C.
Work on C=Cc1ccccn1 [2-ethenylpyridine] yielded a flash point of 42.00 °C.
In the case of Oc1cccc(O)c1 [benzene-1,3-diol], the flash point is reported as 127.00 °C.
Work on C=CC(=O)OCCCCCCCC [octyl prop-2-enoate] yielded a flash point of 82.00 °C.
CCOC=O [ethyl formate] showed a flash point of -20.00 °C.
CCCCO.CCCCO.CCCCO.CCCCO.[Ti] [butan-1-ol;titanium] gave a flash point of 77.00 °C.
With N#Cc1ccccc1 [benzonitrile] the flash point was 72.00 °C.
With CCCCCCCCCCCCCCCCCC(=O)[O-].CCCCCCCCCCCCCCCCCC(=O)[O-].[Zn+2] [zinc;octadecanoate] the flash point was 277.00 °C.
CC1(C)C2CC[C@@]1(C)C(=O)C2 [(1R)-1,7,7-trimethylbicyclo[2.2.1]heptan-2-one] showed a flash point of 64.00 °C.
In the case of CCCCOC(=O)COC(=O)c1ccccc1C(=O)OCCCC, the flash point is reported as 199.00 °C.
Work on CC(C)CNCC(C)C [2-methyl-N-(2-methylpropyl)propan-1-amine] yielded a flash point of 29.00 °C.
COC(C)(C)CCCC(C)C/C=C/C(C)=C/C(=O)OC(C)C (stereo not given) gave a flash point of 187.00 °C.
Molecule CC(C)CCCCCOC(=O)C(C)Oc1cc(Cl)c(Cl)cc1Cl (stereo not given) [6-methylheptyl 2-(2,4,5-trichlorophenoxy)propanoate] has a flash point of 207.00 °C.
CC(=O)Nc1ccccc1 [N-phenylacetamide] showed a flash point of 174.00 °C.
Molecule Cc1ccccc1OP(=O)(Oc1ccccc1)Oc1ccccc1 [(2-methylphenyl) diphenyl phosphate] has a flash point of 232.00 °C.
Nc1cc(Cl)ccc1O [2-amino-4-chlorophenol] gave a flash point of 170.00 °C.
O=C(O)CCCCCCCC(=O)O [nonanedioic acid] showed a flash point of 210.00 °C.
With CCC(C)c1ccccc1 (stereo not given) [butan-2-ylbenzene] the flash point was 52.00 °C.
In the case of C=C(C)CCl [3-chloro-2-methylprop-1-ene], the flash point is reported as -13.00 °C.
With C=CCOC(=O)CC(C)C [prop-2-enyl 3-methylbutanoate] the flash point was 39.00 °C.
Work on CCCCS [butane-1-thiol] yielded a flash point of 13.00 °C.
Molecule Cc1ccco1 [2-methylfuran] has a flash point of -30.00 °C.
In the case of NCCCCCN [pentane-1,5-diamine], the flash point is reported as 62.00 °C.
Work on O=C(OCCOCCOC(=O)c1ccccc1)c1ccccc1 [2-(2-benzoyloxyethoxy)ethyl benzoate] yielded a flash point of 232.00 °C.
ClCCCCCl [1,4-dichlorobutane] gave a flash point of 40.00 °C.
For Nc1ccc(N)cc1 [benzene-1,4-diamine], the flash point was 155.00 °C.
With CCOCCOCCO [2-(2-ethoxyethoxy)ethanol] the flash point was 96.00 °C.
CCCCCSCCCCC [1-pentylsulfanylpentane] showed a flash point of 85.00 °C.
CC(C)c1ccc2ccccc2c1 [2-propan-2-ylnaphthalene] showed a flash point of 122.00 °C.
In the case of CCCCC(Cl)Cl [1,1-dichloropentane], the flash point is reported as 41.00 °C.
Work on Clc1ccc(-c2cccc(Cl)c2Cl)c(Cl)c1 [1,2-dichloro-3-(2,4-dichlorophenyl)benzene] yielded a flash point of 141.00 °C.
Work on CCCS [propane-1-thiol] yielded a flash point of -15.00 °C.
Molecule ClCC1CO1 (stereo not given) [2-(chloromethyl)oxirane] has a flash point of 34.00 °C.
Molecule CCOCCOC(C)=O [2-ethoxyethyl acetate] has a flash point of 57.00 °C.
Work on CCCCCCCCCCCCCCCCCCN [octadecan-1-amine] yielded a flash point of 149.00 °C.
For O=C(OCc1ccccc1)c1ccccc1 [benzyl benzoate], the flash point was 148.00 °C.
Work on CC(O)C#N (stereo not given) [2-hydroxypropanenitrile] yielded a flash point of 77.00 °C.
CCCCOP(=O)(CCCC)OCCCC [1-[butoxy(butyl)phosphoryl]oxybutane] gave a flash point of 154.00 °C.
CC(=O)Nc1ccc(C)cc1 [N-(4-methylphenyl)acetamide] gave a flash point of 168.00 °C.
CC(C)=O [propan-2-one] gave a flash point of -18.00 °C.
